From publication PMC11722533, “Discovery and mechanism of a highly selective, antifungal acetyl CoA synthetase inhibitor” (Research Square, 2025)
Values belong to the compound of their own block, whether it stands above or below them.

What was measured:
[1] = molecular target: T1, CnAcs1 (acetyl CoA synthetase) (Cryptococcus neoformans, UniProt J9VFT1); test: coupled pyrophosphate-release enzyme assay; assay type: biochemical
T1 construct: gene CNAG_00797; His-tagged recombinant CnAcs1 expressed in E. coli
T1 sequence (J9VFT1 1-680): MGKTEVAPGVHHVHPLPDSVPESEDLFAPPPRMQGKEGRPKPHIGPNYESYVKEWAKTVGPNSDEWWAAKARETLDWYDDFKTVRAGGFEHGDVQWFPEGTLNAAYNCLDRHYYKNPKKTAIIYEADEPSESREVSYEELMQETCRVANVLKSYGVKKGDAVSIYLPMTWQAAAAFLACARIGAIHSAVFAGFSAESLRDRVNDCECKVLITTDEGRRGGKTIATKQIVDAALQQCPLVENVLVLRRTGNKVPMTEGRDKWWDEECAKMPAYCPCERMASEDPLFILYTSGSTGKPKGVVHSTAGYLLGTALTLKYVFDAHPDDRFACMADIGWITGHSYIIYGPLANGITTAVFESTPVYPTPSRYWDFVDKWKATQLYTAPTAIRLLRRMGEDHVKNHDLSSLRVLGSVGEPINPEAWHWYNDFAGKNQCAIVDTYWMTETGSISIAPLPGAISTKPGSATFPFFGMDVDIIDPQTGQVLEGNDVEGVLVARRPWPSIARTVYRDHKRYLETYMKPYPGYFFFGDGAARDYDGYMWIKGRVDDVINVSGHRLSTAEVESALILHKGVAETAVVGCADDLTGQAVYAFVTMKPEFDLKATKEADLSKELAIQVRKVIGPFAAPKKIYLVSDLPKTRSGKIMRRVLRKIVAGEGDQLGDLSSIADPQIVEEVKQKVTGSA

[2] = molecular target: T1, CnAcs1 (acetyl CoA synthetase); test: X-ray co-crystal structure; assay type: biochemical; conditions: cited from earlier work
Excerpt: X-ray co-crystal structure on CnAcs1 (acetyl CoA synthetase) | we obtained an X-ray crystal structure of CnAcs1 bound to the cyclopropyl-AMP ester

[3] = molecular target: Cryptococcus neoformans Acs1 (acetyl CoA synthetase) (C. neoformans); test: mass photometry; single molecule, in solution, to low concentrations; with and without supra-inhibitory isoxazole 1 (apparent size unchanged)
[4] = molecular target: Cryptococcus neoformans Acs1 (acetyl CoA synthetase) (C. neoformans); test: crystal structure; co-crystal of CnAcs1 (10 mg/mL in 20 mM NaCl, 20 mM Tris pH 8.5, 1 mM TCEP) with 2 mM isoxazole 1; sitting drop vapor diffusion at 18 °C; PDB 9CD8

IC50 [1]: 2.8 µM
Compound: O=C(NNC(=O)c1csnn1)c1ccc(Cl)cc1 [MMV084978]

Compound: Nc1ncnc2c1ncn2[C@@H]1O[C@H](COP(=O)(O)OC2CC2)[C@@H](O)[C@H]1O [cyclopropyl-AMP]
IC50 [2]: 9 µM

stoichiometry N [3]: 3 | stoichiometry N [4]: 3
Compound: Cryptococcus neoformans Acs1 (acetyl CoA synthetase) (enzyme)
